For one series, the target named is T1, MMP-9 (gelatinase B) (Homo sapiens, UniProt P14780).
T1 construct: MMP-9, derived human fibrosarcome (Yagai Co. Ltd.), were used as enzyme respectively; purchased Yagai Co. Ltd; host or cells: human fibrosarcoma
Description: MMP-9 (gelatinase B) inhibitory activities, fluorogenic substrate enzyme assay. The conditions noted are these: for pIC50: 42° C., 3 h, substrate 10 μM. Format: biochemical. As to the method: (§1) Examination 2: MMP-2 (gelatinase A) and MMP-9 (gelatinase B) inhibitory activities.
(§2) Pro MMP-2 was obtained from culture medium separated from human pro-MMP-2 cDNA tranfected COS-1 cells. Pro MMP-2 activated by 1 mM (4-aminophenyl) mercury acetic acid and MMP-9, derived human fibrosarcome (Yagai Co. Ltd.), were used as enzyme respectively. Inhibition of both enzyme activities were estimated by enzyme assay using MOCAc-Pro-Leu-Gly-Leu-A2pr(Dnp)-Ala-Arg-NH2 (Peptide Research Center, 3163-v) as substrate. Thus, MMP-2 or MMP-9 (0.01 U/ml), test compound (several concentrations), and the substrate (10 μM) were incubated in 50 mM Tris - HCl buffer (pH 7.4) containing 0.2M NaCl, 10 mM CaCl2, 0.02% NaN3, and 0.05% Brij 35 at 42° C. for 2 h (MMP-2), 3 h (MMP-9) respectively. Inhibition of degradation of substrate in the presence of compound was determined by comparison with the degradation of substrate in the absence of compound, and concentration of 50% inhibition (IC50 value) was calculated.

Series [1] concerns the target T2, human fibroblasts derived MMP-1 (type I collagenase) (Homo sapiens, UniProt P03956).
T2 construct: human fibroblasts derived MMP-1 (Yagai Co. Ltd.) as enzyme; purchased Yagai Co. Ltd; host or cells: human fibroblasts
T2 sequence (P03956 100-469): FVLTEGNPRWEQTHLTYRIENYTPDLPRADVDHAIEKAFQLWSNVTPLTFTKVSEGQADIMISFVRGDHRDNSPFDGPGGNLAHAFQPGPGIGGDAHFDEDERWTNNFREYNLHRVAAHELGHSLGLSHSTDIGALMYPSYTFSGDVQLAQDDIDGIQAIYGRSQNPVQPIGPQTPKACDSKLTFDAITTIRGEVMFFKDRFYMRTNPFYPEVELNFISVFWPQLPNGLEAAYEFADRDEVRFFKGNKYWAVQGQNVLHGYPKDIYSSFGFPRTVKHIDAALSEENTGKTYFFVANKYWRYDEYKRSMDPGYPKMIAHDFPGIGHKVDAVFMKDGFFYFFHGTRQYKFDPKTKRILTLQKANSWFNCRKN
As to the kind of experiment: MMP-1 (type I collagenase) inhibitory activities, fluorogenic substrate enzyme assay. The class given is biochemical. To be noted: for inhibition at 10 µM: at 10^−5M, NE means no effect, read-out: MMP-1 inhibition percent. The procedure:
Examination 1: MMP-1 (type I collagenase) inhibitory activities.
Inhibitory activities of MMP-1 (type I collagenase) activities were estimated by enzyme assay using human fibroblasts derived MMP-1 (Yagai Co. Ltd.) as enzyme, and MOCAc-Pro-Leu-Gly-Leu-A2pr(Dnp)-Ala-Arg-NH2 (Peptide Research Center, 3163-v) as substrate. Thus, MMP-1 (0.01 U/ml), test compound (10^−10˜10^−5 M), and the substrate (10 μM) were incubated in 50 mM Tris-HCl buffer (pH 7.4) containing 0.2M NaCl, 10 mM CaCl2, 0.02% NaN3, and 0.05% Brij 35 at 37° C. for 4 h. The reaction was stopped by adding of 4 volumes of sodium acetate buffer (pH 4.0), and the degradation of substrate was calculated by measurement with a fluorescence intensity (λ ex 328 nm, λ em 393 nm). Inhibition of degradation of substrate in the presence of compound was determined by comparison with the degradation percent of substrate in the absence of compound, and concentration of 50% inhibition (IC50 value) was calculated.

Another series addresses T3, Δ MT1-MMP (Δ MMP-14) (Homo sapiens, UniProt P50281).
T3 construct: ProMT1-MMP cDNA encoded extracellular domain of pro Δ MT1-MMP was tranfected E. coli BL21DE3; made in house; host or cells: E. coli BL21DE3 (inclusion bodies, 8M urea, ion exchange)
Description: Δ MT1-MMP (Δ MMP-14) inhibitory activities, fluorogenic substrate enzyme assay. Format: biochemical. The conditions noted are these: 37° C., 30 min, substrate 10 μM; read-out: ΔMMP-14 IC50. The text has this:
Examination 3: Δ MT1-MMP (Δ MMP-14) inhibitory activities.
ProMT1-MMP cDNA encoded extracellular domain of pro Δ MT1-MMP was tranfected E. coli BL21DE3, pro Δ MT1-MMP collected as inclusion body was solved using 8M urea, and it was pulified by ion exchenge column chlomatography. Inhibition of enzyme activities were estimated by enzyme assay using activated Δ MT1-MMP, obtained from activation of pro Δ MT1-MMP by 10 μ/ml tripsine, and MOCAc-Pro-Leu-Gly-Leu-A2pr(Dnp)-Ala-Arg-NH2 (Peptide Research Center, 3163-v) as substrate. Thus, Δ MT1-MMP, test compound (several concentrations), and the substrate (10 μM) were incubated in 50 mM Tris - HCl buffer (pH 7.4) containing 0.2M NaCl, 10 mM CaCl2, 0.02% NaN3, 0.05% Brij 35, and 10 μM leuipeputine at 37° C. for 30 min. The reaction was stopped by adding of 4 volumes of sodium acetate buffer (pH 4.0), and the degradation of substrate was calculated by measurement with a fluorescence intensity (λ ex 328 nm, λ em 393 nm). Inhibition of degradation of substrate in the presence of compound was determined by comparison with the degradation of substrate in the absence of compound, and concentration of 50% inhibition (IC50 value) was calculated.

The target in another series is T4, MMP-2 (gelatinase A) (Homo sapiens, UniProt P08253).
T4 construct: made in house; host or cells: COS-1 cells (secreted into culture medium)
T4 sequence (P08253 110-660): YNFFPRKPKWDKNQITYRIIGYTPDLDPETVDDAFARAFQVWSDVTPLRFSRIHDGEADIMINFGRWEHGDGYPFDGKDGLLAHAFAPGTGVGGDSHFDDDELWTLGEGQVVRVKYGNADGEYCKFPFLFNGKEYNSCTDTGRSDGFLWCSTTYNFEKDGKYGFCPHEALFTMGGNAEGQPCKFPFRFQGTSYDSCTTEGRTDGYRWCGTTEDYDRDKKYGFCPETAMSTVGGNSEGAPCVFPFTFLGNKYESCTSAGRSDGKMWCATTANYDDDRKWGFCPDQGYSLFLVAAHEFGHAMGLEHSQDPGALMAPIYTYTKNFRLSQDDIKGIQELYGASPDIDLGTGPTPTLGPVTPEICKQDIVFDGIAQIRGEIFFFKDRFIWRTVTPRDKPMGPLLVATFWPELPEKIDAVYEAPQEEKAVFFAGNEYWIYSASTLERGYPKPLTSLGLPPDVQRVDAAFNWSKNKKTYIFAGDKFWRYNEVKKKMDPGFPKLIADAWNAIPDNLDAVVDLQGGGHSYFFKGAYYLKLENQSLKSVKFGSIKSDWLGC
Description: MMP-2 (gelatinase A) inhibitory activities, fluorogenic substrate enzyme assay. To be noted: 42° C., 2 h, substrate 10 μM. The class given is biochemical. The procedure: as §1, §2

The source of these data is patent US20010056184A1, “Pipecolinic acid derivatives, method of manufacturing the same and therapeutic agents containing these compounds” (priority 2000, published 2001).

pIC50: −log10 of the molar value. A value given as a limit tells only on which side of the number the result lay.

T1 sequence (P14780 94-707): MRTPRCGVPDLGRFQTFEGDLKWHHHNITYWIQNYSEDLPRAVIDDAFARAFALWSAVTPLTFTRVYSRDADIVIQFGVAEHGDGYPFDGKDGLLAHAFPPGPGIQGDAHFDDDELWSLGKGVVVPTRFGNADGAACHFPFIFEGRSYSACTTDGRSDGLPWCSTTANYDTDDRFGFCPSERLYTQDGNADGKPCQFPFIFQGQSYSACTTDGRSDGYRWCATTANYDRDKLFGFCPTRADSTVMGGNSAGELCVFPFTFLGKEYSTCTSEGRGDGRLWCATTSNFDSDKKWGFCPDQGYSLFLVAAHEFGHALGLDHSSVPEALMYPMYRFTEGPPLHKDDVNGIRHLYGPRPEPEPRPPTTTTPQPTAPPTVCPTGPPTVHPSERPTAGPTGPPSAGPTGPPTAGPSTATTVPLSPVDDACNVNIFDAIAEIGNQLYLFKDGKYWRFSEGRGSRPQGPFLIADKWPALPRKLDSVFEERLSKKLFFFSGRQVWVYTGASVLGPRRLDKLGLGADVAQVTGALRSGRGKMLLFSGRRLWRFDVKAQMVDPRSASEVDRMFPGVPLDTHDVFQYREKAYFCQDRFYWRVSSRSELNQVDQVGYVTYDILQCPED

For `COc1ccc(C(=O)N[C@@H]2CCN(S(=O)(=O)c3ccc(-c4ccc(OC)cc4)cc3)[C@@H](C(=O)O)C2)cc1` [Compound 4, (2R, 4R)-2-Carboxy-4-(4-methoxybenzoylamino)-1-[4-(4-methoxyphenyl)benzenesulfonyl)-piperidine], the melting point was over 250 °C.
With `CCN[C@@H]1CCN(S(=O)(=O)c2ccc(-c3ccc(OC)cc3)cc2)[C@@H](C(=O)O)C1` [Compound 27, (2R, 4R)-2-Carboxy-4-ethylamino-1-[4-(4-methoxyphenyl)benzenesulfonyl]-piperidine], the melting point was over 250 °C.
For `O=C(N[C@@H]1CCN(S(=O)(=O)c2ccc(-c3ccc(Cl)cc3)cc2)[C@@H](C(=O)NO)C1)c1ccccn1` [Compound 74, (2R, 4R)-1-[4-(4-Chlorophenyl)benzenesulfonyl]-2-hydroxyaminocarbonyl-4-(2-pyridinecarbonylamino)-piperidine], the pIC50 at MMP-9 (gelatinase B) was 7.89; on Δ MT1-MMP (Δ MMP-14), 7.13; against MMP-2 (gelatinase A), 8.28. In addition, in series [1], the inhibition at 10 µM stood at 48.9%.
As to `COc1ccc(-c2ccc(S(=O)(=O)N3CC[C@@H](NC(=O)c4ccc([N+](=O)[O-])cc4)C[C@@H]3C(=O)NO)cc2)cc1` [Compound 75, (2R, 4R)-2-Hydroxyaminocarbonyl-1-[4-(4-methoxyphenyl)benzenesulfonyl]-4-(4-nitrobenzoylamino)-piperidine], the pIC50 was 7.80 at MMP-9 (gelatinase B); 5.60 in series [1] (37° C., 4 h, substrate 10 μM); 6.05 at Δ MT1-MMP (Δ MMP-14); 7.82 at MMP-2 (gelatinase A).
As for `COc1ccc(-c2ccc(S(=O)(=O)N3CC[C@@H](NC(=O)c4c[nH]c5ccccc45)C[C@@H]3C(=O)NO)cc2)cc1` [Compound 76, (2R, 4R)-2-Hydroxyaminocarbonyl-4-(3-indolecarbonylamino)-1-[4-(4-methoxyphenyl)benzenesulfonyl]-piperidine], the pIC50 against MMP-9 (gelatinase B) was 7.68; on Δ MT1-MMP (Δ MMP-14), 7.02; at MMP-2 (gelatinase A) it was 7.92. Further, the inhibition at 10 µM in series [1] stood at 12.9%.
Take `CC(C)CCC(=O)N[C@@H]1CCN(S(=O)(=O)c2ccc([N+](=O)[O-])cc2)[C@@H](C(=O)NO)C1` [Compound 77, (2R, 4R)-2-Hydroxyaminocarbonyl-4-(4-methylpentanoylamino)-1-(4-nitrobenzenesulfonyl)-piperidine]: the pIC50 on MMP-9 (gelatinase B) is 6.13; at Δ MT1-MMP (Δ MMP-14) it was 5.64; on MMP-2 (gelatinase A) it was 6.32. Besides, the inhibition at 10 µM in series [1] stood at 32.2%.
For `COc1ccc(OCCCCC(=O)N[C@H]2CCN(S(=O)(=O)c3ccc(OC)cc3)[C@H](C(=O)NO)C2)cc1` [Compound 78, (2S, 4S)-2-Hydroxyaminocarbonyl-1-(4-methoxybenzenesulfonyl)-4-[5-(4-methoxyphenoxy)pentanoylamino]-piperidine] the same measures were 6.35, 6.52, 6.30 and 31.1%.
For the compound `COc1ccc(S(=O)(=O)N2CC[C@H](NC(=O)CCC(C)C)C[C@H]2C(=O)NO)cc1` [Compound 79, (2S, 4S)-2-Hydroxyaminocarbonyl-1-(4-methoxybenzenesulfonyl)-4-(4-methylpentanoylamino)-piperidine], the inhibition at 10 µM on MMP-9 (gelatinase B) (at 10^−5M, read-out: MMP-9 inhibition percent) came to 23.3%; in series [1] it was 0%. Further, the pIC50 at Δ MT1-MMP (Δ MMP-14) was 5.30; against MMP-2 (gelatinase A) it was 5.12.
In the case of `COc1ccc(S(=O)(=O)N2CC[C@H](NC(C)=O)C[C@H]2C(=O)NO)cc1` [Compound 81, (2S, 4S)-4-Acetylamino-2-hydroxyaminocarbonyl-1-(4-methoxybenzenesulfonyl)-piperidine], the pIC50 on MMP-9 (gelatinase B) is 6.41; at Δ MT1-MMP (Δ MMP-14), 7.05; against MMP-2 (gelatinase A), 6.66. The inhibition at 10 µM in series [1] stood at 37.3%.
The corresponding values for `COc1ccc(-c2ccc(S(=O)(=O)N3CC[C@H](NC(C)=O)C[C@@H]3C(=O)NO)cc2)cc1` [Compound 82, (2R, 4S)-4-Acetylamino-2-hydroxyaminocarbonyl-1-[4-(4-methoxyphenyl)benzenesulfonyl]-piperidine] are 6.36, 5.89, 6.13 and 0%.
Regarding `O=C(N[C@@H]1CCN(S(=O)(=O)c2ccc(-c3ccc(Cl)cc3)cc2)[C@@H](C(=O)O)C1)c1cccc[n+]1[O-]` [Compound 89, (2R, 4R)-2-Carboxy-1-[4-(4-chlorophenyl)benzenesulfonyl]-4-(pyridyl-N-oxide-2-yl) carbonylamino-piperidine], the results for the pIC50 on MMP-9 (gelatinase B), on Δ MT1-MMP (Δ MMP-14) and against MMP-2 (gelatinase A) were 6.70, 5.15 and 7.55, respectively. For the same compound, the inhibition at 10 µM in series [1] stood at 14%.

What is called melting point is the temperature, or range, at which the solid turns liquid. For orientation: pIC50 means −log10 of the IC50, conventionally taken in molar units. Usually inhibition stands for the share of the control response that was lost under treatment.
